# From patent US9253983B2, “Triazole compound and use thereof” (KUREHA CORPORATION, priority 2011, dated 2016)
# What was measured:
# Penicillium italicum = assay: Test 2 for antifungal effect, plate medium: P.i; format: cell-based; details: PDA plate medium
# Protocol: (§1) Compound (1-1b) or Compound (1-2b) was dissolved in dimethyl sulfoxide, and the resulting solution was added to a PDA medium (potato dextrose-agar medium) at about 60° C. The medium and the solution were mixed thoroughly in a conical flask, poured into a petri dish, and allowed to solidify. In this way, a plate medium containing Compound (1-1b) or Compound (1-2b) at a certain concentration was prepared.
# (§2) Meanwhile, test microorganisms cultured on a plate medium in advance were cut out with the use of a cork borer 4 mm in diameter, and were inoculated onto the compound-containing plate medium. After the inoculation, the pathogens were cultured at their optimum growth temperatures (for example, refer to LIST OF CULTURES 1996 microorganisms 10th edition, Institute for Fermentation (foundation)) for 1 day to 7 days, and their growth was determined by measuring the diameter of their flora. The extent of growth of the pathogens on the compound-containing plate medium was compared with that of pathogens on a plate medium where no compound was added, and mycelial growth inhibition rate was calculated as in Experiment Example 10. Note that, in Experiment Example 11, controls used in the antifungal effect tests are Compound (1-1a) and Compound (1-2a) instead of Compound (1-1b) and Compound (1-2b), respectively.
# (§3) The results were rated on a 1-to-5 scale as in Experiment Example 10.
# wheat [1] = assay: Necrosis (adverse effects) of seed treatment on wheat seeds; format: in vivo; details: 20 days after sowing
# Protocol: A pot experiment was performed to evaluate necrosis (adverse effects) caused by the seed treatment. Compound (1-1a) and Compound (1-2a), each which was dissolved in DMSO to make up such a concentration that the seeds would be treated in treatment amount of 2 g to 200 g ai/100 kg seeds, were each applied to wheat seeds in a vial, and thereafter 8 wheat seeds were sowed in an 80-cm^2 pot. The pot was kept in a greenhouse with water supplied to its bottom. 20 days after the sowing, an extent of necrosis (percentage of necrotic surface area) of wheat was evaluated. A necrosis index was derived from the percentage of the necrotic surface area, based on the criteria shown by Table 13. In Table 13, a smaller necrosis index indicates a lesser adverse effect of necrosis caused by the treatment with the use of a plant disease controlling agent.
# Gibberella fujikuroi = assay: Test 1 for antifungal effect, plate medium: G.f; format: cell-based; details: PDA plate medium
# Protocol: as §1, with “(1-1a)” for “(1-1b)”, “(1-2a)” for “(1-2b)”
# (§4) Meanwhile, test microorganisms cultured on a plate medium in advance were cut out with the use of a cork borer 4 mm in diameter, and were inoculated onto the compound-containing plate medium. After the inoculation, the microorganisms were cultured at their optimum growth temperatures (for example, refer to LIST OF CULTURES 1996 microorganisms 10th edition, Institute for Fermentation (foundation)) for 1 day to 7 days, and their growth was determined by measuring the diameter of their flora. The extent of growth of the microorganisms on the compound-containing plate medium was compared with that of microorganisms on a plate medium where no compound was added, and mycelial growth inhibition rate was calculated by the following equation: R=100(dc−dt)/dc where R is mycelial growth inhibition rate (%), dc is the flora diameter in untreated plate, and dt is the flora diameter in plate treated with the compound.
# (§5) A larger antifungal index indicates a better antifungal effect.
# Sclerotinia sclerotiorum = assay: Test 1 for antifungal effect, plate medium: S.s; format: cell-based; details: PDA plate medium
# Protocol: as §1, with “(1-1a)” for “(1-1b)”, “(1-2a)” for “(1-2b)”
# as §4, §5
# wheat [2] = assay: Growth inhibition (adverse effects) of seed treatment on wheat seeds; format: in vivo; details: wheat, 20 days after sowing
# Protocol: A pot experiment was performed to evaluate the growth inhibition (adverse effects) caused by the seed treatment. Compound (1-1a) and Compound (1-2a), each of which was dissolved in DMSO to make up such a concentration that the seeds would be treated in treatment amount of 2 g to 200 g ai/100 kg seeds, were each applied to wheat seeds in a vial, and thereafter 8 wheat seeds were sowed in an 80-cm^2 pot. The pot was kept in a greenhouse with water supplied to its bottom. 20 days after the sowing, a growth measure of wheat was evaluated. A growth inhibition index was calculated based on the criteria shown by Table 10. In Table 10, a smaller growth inhibition index indicates a lesser adverse effect of growth inhibition caused by the treatment with the use of a plant disease controlling agent.
# Septoria tritici = assay: Test 2 for antifungal effect, plate medium: S.t; format: cell-based; details: PDA plate medium
# Protocol: as §1, §2, §3
# Ustilago nuda = assay: Test 2 for antifungal effect, plate medium: U.n; format: cell-based; details: PDA plate medium
# Protocol: as §1, §2, §3
# Fusarium oxysporum = assay: Test 2 for antifungal effect, plate medium: F.c; format: cell-based; details: PDA plate medium
# Protocol: as §1, §2, §3
# Puccinia recondita = assay: Efficacy of seed treatment on wheat brown rust; format: in vivo; details: wheat seed treatment 20 g ai/100 kg seeds, 12 days after inoculation
# Protocol: A pot experiment was performed to evaluate the efficacy of seed treatment in controlling wheat leaf rust. Compound (1-1a) and Compound (1-2a), each of which was dissolved in DMSO to make up such a concentration that the seeds would be treated in treatment amount of 20 g ai/100 kg seeds, were each applied to wheat seeds in a vial, and thereafter 8 wheat seeds were sowed on an 80-cm^2 pot. The pot was kept in a greenhouse with water supplied to its bottom. 21 days after the sowing, the wheat seeds were inoculated with Puccinia recondita, and kept in a wet box for 2 days. After that, the pot was again kept in the greenhouse with water supplied to its bottom. 12 days after the inoculation, the percentage of affected area was found, and the protective value was calculated by the following equation. Protective value (%)=(1−(Percentage of affected area in treated region/Percentage of affected area in untreated region))×100
# [3] = treatment amount 2 g ai/100 kg seeds
# [4] = treatment amount 20 g ai/100 kg seeds
# [5] = treatment amount 200 g ai/100 kg seeds
smiles,measurement,setting,value
"CC1(CCl)CCC(Cc2ccc(F)cc2)C1(O)Cn1cncn1 (single isomer, unassigned) [Compound (1-2a), (1,2-cis, 1,5-cis)-5-(4-fluorobenzyl)-2-chloromethyl-2-methyl-1-(1H-1,2,4-triazole-1-ylmethyl)cyclopentanol]",Antifungal index (mycelial growth inhibition rate),Penicillium italicum; 0.04 mg/L,1 (Less than 60%)
same,Antifungal index (mycelial growth inhibition rate),Penicillium italicum; 0.08 mg/L,1 (Less than 60%)
same,Antifungal index (mycelial growth inhibition rate),Penicillium italicum; 0.16 mg/L,3 (Less than 80% but not less than 70%)
same,Antifungal index (mycelial growth inhibition rate),Penicillium italicum; 0.31 mg/L,4 (Less than 90% but not less than 80%)
same,Antifungal index (mycelial growth inhibition rate),Penicillium italicum; 0.63 mg/L,5 (90% or greater)
same,Antifungal index (mycelial growth inhibition rate),Penicillium italicum; 1.25 mg/L,5 (90% or greater)
same,Necrosis index,wheat [1]; [3],0 (Less than 1%)
same,Necrosis index,wheat [1]; [4],0 (Less than 1%)
same,Necrosis index,wheat [1]; [5],0 (Less than 1%)
same,Antifungal index (mycelial growth inhibition rate),Gibberella fujikuroi; 0.16 mg/L,4 (Less than 90% but not less than 80%)
same,Antifungal index (mycelial growth inhibition rate),Gibberella fujikuroi; 0.31 mg/L,5 (90% or greater)
same,Antifungal index (mycelial growth inhibition rate),Gibberella fujikuroi; 0.63 mg/L,5 (90% or greater)
same,Antifungal index (mycelial growth inhibition rate),Gibberella fujikuroi; 1.25 mg/L,5 (90% or greater)
same,Antifungal index (mycelial growth inhibition rate),Gibberella fujikuroi; 2.50 mg/L,5 (90% or greater)
same,Antifungal index (mycelial growth inhibition rate),Sclerotinia sclerotiorum; 0.16 mg/L,5 (90% or greater)
same,Antifungal index (mycelial growth inhibition rate),Sclerotinia sclerotiorum; 0.31 mg/L,5 (90% or greater)
same,Antifungal index (mycelial growth inhibition rate),Sclerotinia sclerotiorum; 0.63 mg/L,5 (90% or greater)
same,Antifungal index (mycelial growth inhibition rate),Sclerotinia sclerotiorum; 1.25 mg/L,5 (90% or greater)
same,Antifungal index (mycelial growth inhibition rate),Sclerotinia sclerotiorum; 2.50 mg/L,5 (90% or greater)
same,Growth inhibition index,wheat [2]; [3],0 (50% or more)
same,Growth inhibition index,wheat [2]; [4],0 (50% or more)
same,Growth inhibition index,wheat [2]; [5],2 (Less than 40% but 30% or more)
same,Antifungal index (mycelial growth inhibition rate),Septoria tritici; 0.04 mg/L,1 (Less than 60%)
same,Antifungal index (mycelial growth inhibition rate),Septoria tritici; 0.08 mg/L,1 (Less than 60%)
same,Antifungal index (mycelial growth inhibition rate),Septoria tritici; 0.16 mg/L,1 (Less than 60%)
same,Antifungal index (mycelial growth inhibition rate),Septoria tritici; 0.31 mg/L,1 (Less than 60%)
same,Antifungal index (mycelial growth inhibition rate),Septoria tritici; 0.63 mg/L,1 (Less than 60%)
same,Antifungal index (mycelial growth inhibition rate),Septoria tritici; 1.25 mg/L,3 (Less than 80% but not less than 70%)
same,Antifungal index (mycelial growth inhibition rate),Ustilago nuda; 0.04 mg/L,1 (Less than 60%)
same,Antifungal index (mycelial growth inhibition rate),Ustilago nuda; 0.08 mg/L,1 (Less than 60%)
same,Antifungal index (mycelial growth inhibition rate),Ustilago nuda; 0.16 mg/L,1 (Less than 60%)
same,Antifungal index (mycelial growth inhibition rate),Ustilago nuda; 0.31 mg/L,1 (Less than 60%)
same,Antifungal index (mycelial growth inhibition rate),Ustilago nuda; 0.63 mg/L,1 (Less than 60%)
same,Antifungal index (mycelial growth inhibition rate),Ustilago nuda; 1.25 mg/L,2 (Less than 70% but not less than 60%)
same,Antifungal index (mycelial growth inhibition rate),Fusarium oxysporum; 0.04 mg/L,1 (Less than 60%)
same,Antifungal index (mycelial growth inhibition rate),Fusarium oxysporum; 0.08 mg/L,1 (Less than 60%)
same,Antifungal index (mycelial growth inhibition rate),Fusarium oxysporum; 0.16 mg/L,2 (Less than 70% but not less than 60%)
same,Antifungal index (mycelial growth inhibition rate),Fusarium oxysporum; 0.31 mg/L,3 (Less than 80% but not less than 70%)
same,Antifungal index (mycelial growth inhibition rate),Fusarium oxysporum; 0.63 mg/L,4 (Less than 90% but not less than 80%)
same,Antifungal index (mycelial growth inhibition rate),Fusarium oxysporum; 1.25 mg/L,5 (90% or greater)
same,Protective value (%),Puccinia recondita,100%
